25 compounds from patent publication US10385022B2, “3-amino-pyridines as GPBAR1 agonists” (HOFFMANN-LA ROCHE INC., priority 2011, dated 2019) can be followed below.

The experiment deals with human GPBAR1 receptor (Homo sapiens (Human), UniProt Q8TDU6). Put plainly: functional cAMP assay in CHO-dhfr(minus) cells expressing human GPBAR1 receptors. The format is cell-based. The conditions noted are these: CHO-dhfr(minus) cells expressing human GPBAR1, 30 min at 30° C. On the procedure: The final clone was verified by DNA sequence analysis. The plasmid was transfected into CHO cells deficient in dihydrofolate reductase activity (CHO-dhfr-) using Lipofectamine plus (Invitrogen). Clones were isolated in limited dilution conditions and identified by activities in the cAMP assay using lithocholic acid as agonist.
EC50 values were determined using Activity Base analysis (ID Business Solution, Limited). […] Specificity for GPBAR1 was tested in non-transfected CHO cells in the same assay as above.

Chain of human GPBAR1 receptor (Q8TDU6 whole entry): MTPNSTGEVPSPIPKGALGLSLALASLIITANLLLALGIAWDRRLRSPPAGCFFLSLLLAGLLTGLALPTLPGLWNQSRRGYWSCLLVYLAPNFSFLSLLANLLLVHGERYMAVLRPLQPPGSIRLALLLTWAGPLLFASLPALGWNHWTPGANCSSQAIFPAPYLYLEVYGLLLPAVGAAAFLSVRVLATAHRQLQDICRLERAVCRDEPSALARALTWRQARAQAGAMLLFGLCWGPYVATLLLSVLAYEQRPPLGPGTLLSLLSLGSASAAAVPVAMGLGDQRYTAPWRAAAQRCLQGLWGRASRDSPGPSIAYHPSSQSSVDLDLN

The compound `CC(C)Oc1ccccc1-c1ccncc1N(C)C(=O)c1cc(C(F)(F)F)cc(C(F)(F)F)c1` [Example 35, N-[4-(2-Isopropoxy-phenyl)-pyridin-3-yl]-N-methyl-3,5-bis-trifluoromethyl-benzamide] yielded a half-maximal effective concentration (EC50) of 163 nM. The same measure for `CN(C(=O)c1cc(C(F)(F)F)cc(C(F)(F)F)c1)c1cnccc1-c1ccccc1C#N` [Example 36, N-[4-(2-Cyano-phenyl)-pyridin-3-yl]-N-methyl-3,5-bis-trifluoromethyl-benzamide]: 362 nM. With `CN(C(=O)c1cc(C(F)(F)F)cc(C(F)(F)F)c1)c1cnccc1-c1ccc(F)cc1F` [Example 37, N-[4-(2,4-Difluoro-phenyl)-pyridin-3-yl]-N-methyl-3,5-bis-trifluoromethyl-benzamide], the EC50 is 40 nM. The same measure for `COc1cc(F)ccc1-c1ccncc1N(C)C(=O)c1cc(C(F)(F)F)cc(C(F)(F)F)c1` [Example 38, N-[4-(4-Fluoro-2-methoxy-phenyl)-pyridin-3-yl]-N-methyl-3,5-bis-trifluoromethyl-benzamide]: 11 nM; for `COc1cc(F)c(F)cc1-c1ccncc1N(C)C(=O)c1cc(C(F)(F)F)cc(C(F)(F)F)c1` [Example 39, N-[4-(4,5-Difluoro-2-methoxy-phenyl)-pyridin-3-yl]-N-methyl-3,5-bis-trifluoromethyl-benzamide]: 38 nM.

Consider `CN(C(=O)c1cc(C(F)(F)F)cc(C(F)(F)F)c1)c1cnccc1-c1cccc(F)c1F` [Example 40, N-[4-(2,3-Difluoro-phenyl)-pyridin-3-yl]-N-methyl-3,5-bis-trifluoromethyl-benzamide], for which the EC50 was 107 nM. Under `COc1c(F)cccc1-c1ccncc1N(C)C(=O)c1cc(C(F)(F)F)cc(C(F)(F)F)c1` [Example 41, N-[4-(3-Fluoro-2-methoxy-phenyl)-pyridin-3-yl]-N-methyl-3,5-bis-trifluoromethyl-benzamide] stands 90 nM. `Cc1ccc(F)c(-c2ccncc2N(C)C(=O)c2cc(C(F)(F)F)cc(C(F)(F)F)c2)c1` [Example 42, N-[4-(2-Fluoro-5-methyl-phenyl)-pyridin-3-yl]-N-methyl-3,5-bis-trifluoromethyl-benzamide] returned an EC50 of 119 nM. The same measure for `CN(C(=O)c1cc(C(F)(F)F)cc(C(F)(F)F)c1)c1cnccc1-c1ccc(F)cc1OCc1ccccc1` [Example 43, N-[4-(2-Benzyloxy-4-fluoro-phenyl)-pyridin-3-yl]-N-methyl-3,5-bis-trifluoromethyl-benzamide]: 2050 nM; for `COc1ncc(F)cc1-c1ccncc1N(C)C(=O)c1cc(C(F)(F)F)cc(C(F)(F)F)c1` [Example 44, N-(5-Fluoro-2-methoxy-[3,4′]bipyridinyl-3′-yl)-N-methyl-3,5-bis-trifluoromethyl-benzamide]: 30 nM. With `COc1ncc(Cl)cc1-c1ccncc1N(C)C(=O)c1cc(C(F)(F)F)cc(C(F)(F)F)c1` [Example 45, N-(5-Chloro-2-methoxy-[3,4′]bipyridinyl-3′-yl)-N-methyl-3,5-bis-trifluoromethyl-benzamide], a half-maximal effect (EC50) was put at 302 nM.

Compound `CC(C)Oc1ncccc1-c1ccncc1N(C)C(=O)c1cc(C(F)(F)F)cc(C(F)(F)F)c1` [Example 46, N-(2-Isopropoxy-[3,4′]bipyridinyl-3′-yl)-N-methyl-3,5-bis-trifluoromethyl-benzamide] displayed an EC50 of 924 nM.

For `COc1nc(C)ccc1-c1ccncc1N(C)C(=O)c1cc(C(F)(F)F)cc(C(F)(F)F)c1` [Example 47, N-(2-Methoxy-6-methyl-[3,4′]bipyridinyl-3′-yl)-N-methyl-3,5-bis-trifluoromethyl-benzamide], the EC50 stood at 68 nM. On to `CN(C(=O)c1cc(C(F)(F)F)cc(C(F)(F)F)c1)c1cnccc1-c1ccc(F)cc1O` [Example 48, N-[4-(4-Fluoro-2-hydroxy-phenyl)-pyridin-3-yl]-N-methyl-3,5-bis-trifluoromethyl-benzamide], for which the EC50 is 307 nM. `COC(=O)COc1cc(F)ccc1-c1ccncc1N(C)C(=O)c1cc(C(F)(F)F)cc(C(F)(F)F)c1` [Example 49, (2-{3-[(3,5-Bis-trifluoromethyl-benzoyl)-methyl-amino]-pyridin-4-yl}-5-fluoro-phenoxy)-acetic acid methyl ester]: a half-maximal response (EC50) required 629 nM. `COc1nccc(-c2ccncc2N(C)C(=O)c2cc(C(F)(F)F)cc(C(F)(F)F)c2)c1Cl` [Example 50, N-(3′-Chloro-2′-methoxy-[4,4′]bipyridinyl-3-yl)-N-methyl-3,5-bis-trifluoromethyl-benzamide] had an EC50 of 678 nM. Under `CN(C(=O)c1cc(C(F)(F)F)cc(C(F)(F)F)c1)c1cnccc1-c1ccc(F)cc1OCC#N` [Example 51, N-[4-(2-Cyanomethoxy-4-fluoro-phenyl)-pyridin-3-yl]-N-methyl-3,5-bis-trifluoromethyl-benzamide] stands 60 nM; under `CN(C(=O)c1cc(C(F)(F)F)cc(C(F)(F)F)c1)c1cnccc1-c1ccc(F)cc1OCCO` [Example 52, N-{4-[4-Fluoro-2-(2-hydroxy-ethoxy)-phenyl]-pyridin-3-yl}-N-methyl-3,5-bis-trifluoromethyl-benzamide], 463 nM. The same measure for `CC(C#N)Oc1cc(F)ccc1-c1ccncc1N(C)C(=O)c1cc(C(F)(F)F)cc(C(F)(F)F)c1` (stereo not shown) [Example 53, N-{4-[2-(Cyano-methyl-methoxy)-4-fluoro-phenyl]-pyridin-3-yl}-N-methyl-3,5-bis-trifluoromethyl-benzamide]: 1100 nM; for `COc1cc(-c2ccncc2N(C)C(=O)c2cc(C(F)(F)F)cc(C(F)(F)F)c2)c(OC)nn1` [Example 54, N-[4-(3,6-Dimethoxy-pyridazin-4-yl)-pyridin-3-yl]-N-methyl-3,5-bis-trifluoromethyl-benzamide]: 1970 nM; for `CN(C(=O)c1cc(C(F)(F)F)cc(C(F)(F)F)c1)c1cnccc1-c1cc(F)cnc1Cl` [Example 55, N-(2-Chloro-5-fluoro-[3,4′]bipyridinyl-3′-yl)-N-methyl-3,5-bis-trifluoromethyl-benzamide]: 435 nM.

On to `CN(C(=O)c1cc(C(F)(F)F)cc(C(F)(F)F)c1)c1cnccc1-c1ccnc(Cl)c1F` [Example 56, N-(2′-Chloro-3′-fluoro-[4,4′]bipyridinyl-3-yl)-N-methyl-3,5-bis-trifluoromethyl-benzamide], for which the EC50 was 430 nM. In turn, `Cc1cccnc1-c1ccncc1N(C)C(=O)c1cc(C(F)(F)F)cc(C(F)(F)F)c1` [Example 57, N-Methyl-N-(3-methyl-[2,4′]bipyridinyl-3′-yl)-3,5-bis-trifluoromethyl-benzamide] gave an EC50 of 351 nM.

In turn, `COc1ccc(F)cc1-c1ccncc1N(C)C(=O)c1cc(C(F)(F)F)cc(C(F)(F)F)c1` [Example 58, N-[4-(5-Fluoro-2-methoxy-phenyl)-pyridin-3-yl]-N-methyl-3,5-bis-trifluoromethyl-benzamide] had an EC50 of 26 nM. `COc1c(F)cc(F)cc1-c1ccncc1N(C)C(=O)c1cc(C(F)(F)F)cc(C(F)(F)F)c1` [Example 59, N-[4-(3,5-Difluoro-2-methoxy-phenyl)-pyridin-3-yl]-N-methyl-3,5-bis-trifluoromethyl-benzamide] registered an EC50 of 190 nM.

As a reminder, the EC50 is the concentration at which the effect is half-maximal. A higher EC50 goes with a less potent agent.
